Data as given in US20230295157A1, “3-(1H-IMIDAZOL-2-YL)-2,3,8,8A-TETRAHYDROINDOLIZIN-5(1H)-ONE DERIVATIVES USEFUL AS FACTOR XIA INHIBITORS” (JANSSEN PHARMACEUTICA NV, priority 2020, published 2023).
Where two headings read alike, the source gives them in different places. Values belong to the compound of their own block, whether it stands above or below them.

Tests used:
Factor XIa = Factor XIa (Homo sapiens (Human), UniProt P03951); assay: Factor XIa inhibition assay (FLINT) utilizing a fluorophore-quencher pair peptide substrate; type: biochemical; details: 30 min preincubation, kinetic reads over 30 min, read-out: FXIa Kin Inh IC50
Procedure, shortened: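 FXIa ([…]) preincubated 30 min with compound (11-point 3-fold dilution, top 100 nM, 2% DMSO), then 15 μM quenched FXI Arg146-based peptide added; Tris pH 7.5, CaCl2, BSA, CHAPS. Fluorescence 485/520 nm read kinetically every 5 min over 30 min at RT; IC50 by 4-parameter fit.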

human plasma kallikrein = human plasma kallikrein (Homo sapiens (Human), UniProt P03952); assay: Kallikrein inhibition assay (FLINT) utilizing a quenched AMC peptide substrate; type: biochemical; details: 30 min preincubation, read-out: Kallikrein Kin Inh IC50
Procedure, shortened: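 Fluorogenic Z-Gly-Pro-Arg-AMC cleavage (50 μM substrate, 2 nM kallikrein, Tris pH 7.5, CaCl2, BSA, CHAPS, 2% DMSO) read kinetically at 340/440 nm for 30 min after 30-min compound pre-incubation. Compounds in 11-point 3-fold series from 1 μM; percent inhibition fitted to four-parameter equation for IC50.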

[1] = 5Fam-KLTRAETV-K5Tamra substrate 15 μM
[2] = kinetic reads over 30 min, Z-Gly-Pro-Arg-AMC substrate 50 μM
[3] = 5Fam-[…]-K5Tamra substrate 15 μM

Factor XIa, sequence (P03951 388-625): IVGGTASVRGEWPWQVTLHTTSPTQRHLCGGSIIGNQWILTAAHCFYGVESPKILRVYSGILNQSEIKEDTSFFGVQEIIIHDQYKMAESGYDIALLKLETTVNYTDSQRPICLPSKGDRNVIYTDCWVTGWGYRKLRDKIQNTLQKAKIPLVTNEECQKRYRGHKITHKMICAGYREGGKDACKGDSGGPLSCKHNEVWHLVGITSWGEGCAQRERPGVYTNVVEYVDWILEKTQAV
Factor XIa, sequence (P03951 19-387 partner): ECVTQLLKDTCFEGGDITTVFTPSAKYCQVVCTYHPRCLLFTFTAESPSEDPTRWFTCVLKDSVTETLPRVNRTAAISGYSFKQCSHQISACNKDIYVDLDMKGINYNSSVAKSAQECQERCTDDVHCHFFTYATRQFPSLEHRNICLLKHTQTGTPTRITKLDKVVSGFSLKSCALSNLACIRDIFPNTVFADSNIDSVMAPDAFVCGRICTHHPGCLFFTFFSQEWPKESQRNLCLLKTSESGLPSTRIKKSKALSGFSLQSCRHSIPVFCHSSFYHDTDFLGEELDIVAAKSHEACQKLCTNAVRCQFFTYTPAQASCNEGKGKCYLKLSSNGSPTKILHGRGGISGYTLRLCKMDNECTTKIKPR
human plasma kallikrein, sequence (P03952 391-638): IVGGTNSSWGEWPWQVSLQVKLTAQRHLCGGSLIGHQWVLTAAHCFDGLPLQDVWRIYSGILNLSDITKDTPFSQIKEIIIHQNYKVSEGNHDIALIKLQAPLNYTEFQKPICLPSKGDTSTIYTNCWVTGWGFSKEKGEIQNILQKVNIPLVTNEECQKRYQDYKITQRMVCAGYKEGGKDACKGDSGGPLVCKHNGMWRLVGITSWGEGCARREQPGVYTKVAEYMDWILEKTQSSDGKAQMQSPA
human plasma kallikrein, sequence (P03952 20-390 partner): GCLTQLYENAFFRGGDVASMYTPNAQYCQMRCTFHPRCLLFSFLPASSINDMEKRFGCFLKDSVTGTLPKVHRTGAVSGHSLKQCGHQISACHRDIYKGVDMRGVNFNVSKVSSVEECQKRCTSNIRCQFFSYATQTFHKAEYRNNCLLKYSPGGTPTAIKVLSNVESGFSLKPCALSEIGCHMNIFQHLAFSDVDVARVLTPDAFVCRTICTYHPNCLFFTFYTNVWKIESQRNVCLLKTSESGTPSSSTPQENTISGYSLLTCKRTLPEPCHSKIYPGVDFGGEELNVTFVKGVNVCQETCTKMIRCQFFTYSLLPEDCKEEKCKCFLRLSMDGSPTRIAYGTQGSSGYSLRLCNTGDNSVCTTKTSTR

Structure (SMILES): CCOC(=O)NCc1nccc(-c2cnc([C@@H]3CC[C@@H]4CC(c5c(-n6cnnn6)ccc(Cl)c5F)=CC(=O)N43)[nH]2)c1F [Example 12, Ethyl-N-[[4-[2-[(3S,8aR)-7-[3-Chloro-2-fluoro-6-(tetrazol-1-yl)phenyl]-5-oxo-2,3,8,8a-tetrahydro-1H-indolizin-3-yl]-1H-imidazol-5-yl]-3-fluoro-2-pyridyl]methyl]carbamate]
IC50 (Factor XIa; [1]): 2.7 nM | IC50 (human plasma kallikrein; [2]): 0.0355 µM

Structure (SMILES): [2H]c1cc(-c2[nH]c([C@@H]3CC[C@@H]4CC(c5c(-n6cnnn6)ccc(Cl)c5F)=CC(=O)N43)nc2[2H])c(F)nc1N [Example 145, (3S,8aR)-3-[5-(6-amino-5-deuterio-2-fluoro-3-pyridyl)-4-deuterio-1H-imidazol-2-yl]-7-[3-chloro-2-fluoro-6-(tetrazol-1-yl)phenyl]-2,3,8,8a-tetrahydro-1H-indolizin-5-one]
IC50 (Factor XIa; [1]): 0.6 nM | IC50 (human plasma kallikrein; [2]): 0.0077 µM

Structure (SMILES): NC(=O)c1ccccc1-c1cnc([C@@H]2CCC3CC(c4c(-n5cnnn5)ccc(Cl)c4F)=CC(=O)N32)[nH]1 (stereo partly drawn) [Example 290, 2-(2-((3S)-7-(3-Chloro-2-fluoro-6-(1H-tetrazol-1-yl)phenyl)-5-oxo-1,2,3,5,8,8a-hexahydroindolizin-3-yl)-1H-imidazol-5-yl)benzamide]
IC50 (Factor XIa; [1]): 134 nM | IC50 (human plasma kallikrein; μM, kinetic reads): 1.2 µM

Structure (SMILES): N#CC1CN(c2nccc(-c3cnc([C@H]4CC[C@@H]5CC(c6c(-n7cnnn7)ccc(Cl)c6F)=CC(=O)N54)[nH]3)c2F)C1 (single isomer, unassigned) [Example 102, 1-(4-(24(3R*,8aR)-7-(3-chloro-2-fluoro-6-(1H-tetrazol-1-yl)phenyl)-5-oxo-1,2,3,5,8,8a-hexahydroindolizin-3-yl)-1H-imidazol-5-yl)-3-fluoropyridin-2-yl)azetidine-3-carbonitrile]
IC50 (Factor XIa; [3]): 10.3 nM | IC50 (human plasma kallikrein; [2]): 0.0096 µM

Structure (SMILES): O=C1C=C(c2c(-n3cnnn3)ccc(Cl)c2F)CC2CC[C@@H](c3nc(Cl)c(-c4cc[nH]c(=O)c4)[nH]3)N12 (stereo partly drawn) [Example 199, (3S)-7-(3-chloro-2-fluoro-6-(1H-tetrazol-1-yl)phenyl)-3-(4 chloro-5-(2-oxo-1,2-dihydropyridin-4-yl)-1H-imidazol-2-yl)-2,3,8,8a-tetrahydroindolizin-5(1H)-one]
IC50 (Factor XIa; [1]): 1.3 nM | IC50 (human plasma kallikrein; [2]): 0.0156 µM

Structure (SMILES): Nc1ccncc1-c1c[nH]c([C@@H]2CC[C@H]3CC(c4c(-n5cnnn5)ccc(Cl)c4F)=CC(=O)N32)n1 [Example 272, (3S,8aS)-3-(4-(4-Aminopyridin-3-yl)-1H-imidazol-2-yl)-7-(3-chloro-2-fluoro-6-(1H-tetrazol-1-yl)phenyl)-2,3,8,8a-tetrahydroindolizin-5(1H)-one]
IC50 (Factor XIa; [1]): > 100 nM | IC50 (human plasma kallikrein; μM, kinetic reads): > 1 µM

Structure (SMILES): NC(=O)c1ccc(-c2cnc([C@@H]3CC[C@@H]4CC(c5c(-n6cnnn6)ccc(Cl)c5F)=CC(=O)N43)[nH]2)c(Cl)n1 [Example 229, 6-Chloro-5-(2-((3S,8aR)-7-(3-chloro-2-fluoro-6-(1H-tetrazol-1-yl)phenyl)-5-oxo-1,2,3,5,8,8a-hexahydroindolizin-3-yl)-1H-imidazol-5-yl)picolinamide]
IC50 (Factor XIa; [1]): 54.9 nM | IC50 (human plasma kallikrein; [2]): 0.342 µM

Structure (SMILES): O=C1C=C(c2c(-n3cnnn3)ccc(Cl)c2F)C[C@H]2CC[C@@H](c3ncc(-c4c[nH]c5cnccc45)[nH]3)N12 (single isomer, unassigned) [Example 19]
IC50 (Factor XIa; [1]): 2.4 nM | IC50 (human plasma kallikrein; [2]): 0.0074 µM

Structure (SMILES): O=C1C=C(c2c(-n3cnnn3)ccc(Cl)c2F)C[C@H]2CC[C@@H](c3ncc(-c4ccncc4F)[nH]3)N12 [Example 17, (3S,8aR)-7-[3-Chloro-2-fluoro-6-(tetrazol-1-yl)phenyl]-3-[5-(3-fluoro-4-pyridyl)-1H-imidazol-2-yl]-2,3,8,8a-tetrahydro-1H-indolizin-5-one]
IC50 (Factor XIa; [1]): 3 nM | IC50 (human plasma kallikrein; [2]): 0.029 µM

Structure (SMILES): O=C1C=C(c2c(-n3cnnn3)ccc(Cl)c2F)C[C@H]2CC[C@@H](c3nc(-c4cnc5[nH]ncc5c4)c[nH]3)N12 [Example 41, (3S,8aR)-3-(4-(1H-pyrazolo[3,4-b]pyridin-5-yl)-1H-imidazol-2-yl)-7-(3-chloro-2-fluoro-6-(1H-tetrazol-1-yl)phenyl)-2,3,8,8a-tetrahydroindolizin-5(1H)-one]
IC50 (Factor XIa; [1]): 44.7 nM | IC50 (human plasma kallikrein; [2]): 0.0542 µM

Structure (SMILES): COC(=O)Nc1nccc(-c2cnc([C@@H]3CC[C@@H]4CC(c5c(-n6cnnn6)ccc(Cl)c5F)=CC(=O)N43)[nH]2)c1F [Example 44, Methyl(4-(2-((3S,8aR)-7-(3-chloro-2-fluoro-6-(1H-tetrazol-1-yl)phenyl)-5-oxo-1,2,3,5,8,8a-hexahydroindolizin-3-yl)-1H-imidazol-5-yl)-3-fluoropyridin-2-yl)carbamate]
IC50 (Factor XIa; [1]): 1.8 nM | IC50 (human plasma kallikrein; [2]): 0.0114 µM

Structure (SMILES): C[C@H](CO)Oc1nccc(-c2cnc([C@@H]3CC[C@@H]4CC(c5c(-n6cnnn6)ccc(Cl)c5F)=CC(=O)N43)[nH]2)c1F (single isomer, unassigned) [Example 168, (3S,8a*R)-7-(3-chloro-2-fluoro-6-(1H-tetrazol-1-yl)phenyl)-3-(5-(3-fluoro-2-(((R)-1-hydroxypropan-2-yl)oxy)pyridin-4-yl)-1H-imidazol-2-yl)-2,3,8,8a-tetrahydroindolizin-5(1H)-one]
IC50 (Factor XIa; [1]): 0.8 nM | IC50 (human plasma kallikrein; [2]): 0.0049 µM

Structure (SMILES): O=C1C=C(c2c(-n3cnnn3)ccc(Cl)c2F)C[C@H]2CC[C@@H](c3nc(-c4ncc(CO)s4)c[nH]3)N12 [Example 39, (3S,8aR)-7-(3-Chloro-2-fluoro-6-(1H-tetrazol-1-yl)phenyl)-3-(4-(5-(hydroxymethyl)thiazol-2-yl)-1H-imidazol-2-yl)-2,3,8,8a-tetrahydroindolizin-5(1H)-one]
IC50 (Factor XIa; [1]): 95.6 nM | IC50 (human plasma kallikrein; [2]): 0.137 µM

Next, values leading:

IC50 (Factor XIa; [1]): 1.7 nM | IC50 (human plasma kallikrein; [2]): 0.007 µM
Structure (SMILES): O=C1C=C(c2c(-n3cnnn3)ccc(Cl)c2F)C[C@H]2CC[C@@H](c3nc(Cl)c(-c4ccnc([C@@H](O)C(F)(F)F)c4)[nH]3)N12 [Example 173, (3S,8aR)-7-(3-chloro-2-fluoro-6-(1H-tetrazol-1-yl)phenyl)-3-(4-chloro-5-(2-((R)-2,2,2-trifluoro-1-hydroxyethyl)pyridin-4-yl)-1H-imidazol-2-yl)-2,3,8,8a-tetrahydroindolizin-5(1H)-one]

IC50 (Factor XIa; [1]): 0.3 nM | IC50 (human plasma kallikrein; [2]): 0.0007 µM
Structure (SMILES): O=C1C=C(c2c(-n3cnnn3)ccc(Cl)c2F)CC2CC[C@@H](c3ncc(-c4ccc5[nH]c(=O)ccc5c4)[nH]3)N12 (stereo partly drawn) [Example 261, 6-[2-[(3S)-7-[3-Chloro-2-fluoro-6-(tetrazol-1-yl)phenyl]-5-oxo-2,3,8,8a-tetrahydro-1H-indolizin-3-yl]-1H-imidazol-5-yl]-1H-quinolin-2-one]

IC50 (Factor XIa; [1]): 0.3 nM | IC50 (human plasma kallikrein; [2]): 0.0007 µM
Structure (SMILES): O=C(Nc1ccccc1-c1cnc([C@@H]2CC[C@@H]3CC(c4c(-n5cnnn5)ccc(Cl)c4F)=CC(=O)N32)[nH]1)C1CC1 [Example 307, N-(2-(2-((3S,8aR)-7-(3-Chloro-2-fluoro-6-(1H-tetrazol-1-yl)phenyl)-5-oxo-1,2,3,5,8,8a-hexahydroindolizin-3-yl)-1H-imidazol-4-yl)phenyl)cyclopropanecarboxamide]

IC50 (Factor XIa; [3]): 0.5 nM | IC50 (human plasma kallikrein; [2]): 0.0055 µM
Structure (SMILES): Nc1nccc(-c2cnc([C@@H]3CC[C@@H]4CC(c5cc(Cl)ccc5-n5cnnn5)=CC(=O)N43)[nH]2)c1F (single isomer, unassigned) [Example 90, (3S*,8aR)-3-(5-(2-amino-3-fluoropyridin-4-yl)-1H-imidazol-2-yl)-7-(5-chloro-2-(1H-tetrazol-1-yl)phenyl)-2,3,8,8a-tetrahydroindolizin-5(1H)-one]

IC50 (Factor XIa; [1]): 1 nM | IC50 (human plasma kallikrein; [2]): 0.0015 µM
Structure (SMILES): O=C(Nc1ccsc1-c1c[nH]c([C@@H]2CCC3CC(c4c(-n5cnnn5)ccc(Cl)c4F)=CC(=O)N32)n1)C1CC1 (stereo partly drawn) [Example 248, N-[2-[2-[(3S)-7-[3-Chloro-2-fluoro-6-(tetrazol-1-yl)phenyl]-5-oxo-2,3,8,8a-tetrahydro-1H-indolizin-3-yl]-1H-imidazol-4-yl]-3-thienyl]cyclopropanecarboxamide]

IC50 (Factor XIa; [3]): 0.2 nM | IC50 (human plasma kallikrein; [2]): 0.0011 µM
Structure (SMILES): O=C1Nc2ccc(-c3cnc([C@@H]4CC[C@@H]5CC(c6c(-n7cnnn7)ccc(Cl)c6F)=CC(=O)N54)[nH]3)cc2CO1 (relative stereo) [Example 277, 6-(2-((3S,8aR)-7-(3-Chloro-2-fluoro-6-(1H-tetrazol-1-yl)phenyl)-5-oxo-1,2,3,5,8,8a-hexahydroindolizin-3-yl)-1H-imidazol-5-yl)-1,4-dihydro-2H-benzo[d][1,3]oxazin-2-one]

IC50 (Factor XIa; [3]): 0.7 nM | IC50 (human plasma kallikrein; [2]): 0.0019 µM
Structure (SMILES): O=C1C=C(c2c(-n3cnnn3)ccc(Cl)c2F)CC2CC[C@@H](c3nc(F)c(-c4ccnc(N[C@H]5CCOC5)c4F)[nH]3)N12 (relative stereo) [Example 76, (3S*)-7-(3-chloro-2-fluoro-6-(1H-tetrazol-1-yl)phenyl)-3-(4-fluoro-5-(3-fluoro-2-(((S)-tetrahydrofuran-3-yl)amino)pyridin-4-yl)-1H-imidazol-2-yl)-2,3,8,8a-tetrahydroindolizin-5(1H)-one]

IC50 (Factor XIa; [1]): 1.6 nM | IC50 (human plasma kallikrein; [2]): 0.0046 µM
Structure (SMILES): O=C1CCc2cc(-c3cnc([C@@H]4CC[C@@H]5CC(c6cc(Cl)ccc6-n6cc(C(F)(F)F)nn6)=CC(=O)N54)[nH]3)ccc2N1 [Example 97, 6-(2-((3S,8aR)-7-(5-chloro-2-(4-(trifluoromethyl)-1H-1,2,3-triazol-1-yl)phenyl)-5-oxo-1,2,3,5,8,8a-hexahydroindolizin-3-yl)-1H-imidazol-5-yl)-3,4-dihydroquinolin-2(1H)-one]
